The results in this text go back to ChEMBL document CHEMBL3259643 (Eur J Med Chem, 2014).

Activity calls are given as the source filed them. The rule behind the calls is not given here.

A short description of series [1]: Apparent octanol-phosphate buffer partition coefficient, log D of the compound at 1 mg at pH 7.4 after 24 hrs by HPLC analysis. It counts as physicochemical.
The target of another series is Neuraminidase (Influenza A virus, UniProt B4URF0). Set-up: species or system Influenza A virus (A/WSN/1933(H1N1)).
Sequence of Neuraminidase (B4URF0 whole entry): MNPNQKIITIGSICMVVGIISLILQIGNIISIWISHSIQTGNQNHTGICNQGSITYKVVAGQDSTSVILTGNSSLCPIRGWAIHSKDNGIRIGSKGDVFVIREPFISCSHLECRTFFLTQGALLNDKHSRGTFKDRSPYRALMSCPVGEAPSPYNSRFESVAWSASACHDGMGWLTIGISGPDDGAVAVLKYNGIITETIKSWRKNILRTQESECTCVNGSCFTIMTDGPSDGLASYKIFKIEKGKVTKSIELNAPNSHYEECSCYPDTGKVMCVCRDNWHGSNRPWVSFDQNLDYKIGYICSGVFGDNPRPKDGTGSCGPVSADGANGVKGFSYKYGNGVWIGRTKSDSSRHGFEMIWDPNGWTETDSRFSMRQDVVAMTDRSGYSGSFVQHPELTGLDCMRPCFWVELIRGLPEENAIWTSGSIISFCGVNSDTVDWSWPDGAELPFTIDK
The next series concerns HEK-293T. As to the kind of experiment: Cytotoxicity against human 293T cells at >10 uM after 48 to 72 hrs. Type of series: cell-based.
A further series has as its system MDCK. As to the kind of experiment: Cytotoxicity against MDCK cells at >10 uM after 48 to 72 hrs. It counts as cell-based, Canis lupus familiaris. The settings on record: dog.
Series [2] is described as follows: Cellular uptake in MDCK2 cells measured per mg of protein at 100 ug/mL after 120 mins by HPLC analysis. Type of series: ADME, cell-based, Canis lupus familiaris. The settings on record: dog, mdck-ii, 2 h.
Series [3] concerns Influenza A virus (A/WSN/1933(H1N1)). As to the kind of experiment: Antiviral activity against Influenza A virus (A/WSN/1933(H1N1)) infected in BALB/c mouse assessed as increase in survival rate at 1.2 umol/kg/day administered on day 0 intranasally bid prior to viral infection continued for day 1 to day 4 measured on day 14. Type of series: functional.
Series [4] shares this test system. As to the kind of experiment: Antiviral activity against Influenza A virus (A/WSN/1933(H1N1)) infected in BALB/c mouse assessed as increase in survival rate at 0.12 umol/kg/day administered on day 0 intranasally bid prior to viral infection continued for day 1 to day 4 measured on day 9. Type of series: functional.
Series [5] shares this test system. The experiment in a line: Antiviral activity against Influenza A virus (A/WSN/1933(H1N1)) infected in BALB/c mouse assessed as increase in survival rate at 2.6 umol/kg/day, po bid administered on day 0 prior to viral infection continued for day 1 to day 4 measured on day 14. Type of series: functional, organism-based.
The test system of another series is Caco-2. The experiment in a line: Permeability across apical to basolateral side in human Caco2 cells at 100 ug/mL after 15 to 120 mins by HPLC analysis. Type of series: ADME, cell-based. A general note: Caco-2 monolayers are a common model of the intestinal barrier.
The nature of series [6]: First order rate constant associated with the terminal portion of the curve in ICR mouse at 0.25 mg/kg, iv. Type of series: ADME, organism-based. Set-up: dose 0.25 mg/kg, route intravenous. The note with it: in vivo.
Series [7] in a line: AUC (0 to 2 hrs) in ICR mouse at 0.25 mg/kg, iv. Set-up: time < 2 hr, dose 0.25 mg/kg, route intravenous. The settings on record: plasma. It counts as ADME, organism-based.
A short description of series [8]: AUC (0 to infinity) in ICR mouse at 0.25 mg/kg, iv. It counts as ADME, organism-based. Also noted: time infinity, dose 0.25 mg/kg, route intravenous. The note with it: plasma.
Series [9] can be described thus: Terminal half life in ICR mouse at 0.25 mg/kg, iv. Also noted: dose 0.25 mg/kg, route intravenous. The settings on record: in vivo, read-out: beta t1/2 (converted). Type of series: ADME, organism-based.
A further series concerns Mus musculus. The experiment in a line: Bioavailability in ICR mouse at 0.25 mg/kg, iv. Type of series: ADME, organism-based. The note with it: in vivo.
Series [10] can be described thus: First order rate constant associated with the terminal portion of the curve in ICR mouse at 10 mg/kg, po. Type of series: ADME, organism-based. Also noted: dose 10 mg/kg, route oral. The settings on record: in vivo.
The nature of series [11]: AUC (0 to 12 hrs) in ICR mouse at 10 mg/kg, po. Type of series: ADME, organism-based. Set-up: time < 12 hr, dose 10 mg/kg, route oral. The note with it: plasma.
Series [12] in a line: AUC (0 to infinity) in ICR mouse at 10 mg/kg, po. It counts as ADME, organism-based. Also noted: time infinity, dose 10 mg/kg, route oral. The settings on record: plasma.
The nature of series [13]: Terminal half life in ICR mouse at 10 mg/kg, po. Type of series: ADME, organism-based. Also noted: dose 10 mg/kg, route oral. The note with it: in vivo, read-out: beta t1/2 (converted).
A short description of series [14]: Apparent total clearance in ICR mouse at 10 mg/kg. It counts as ADME, organism-based. Also noted: dose 10 mg/kg. The note with it: in vivo, read-out: CLt/F (converted).
Series [15] in a line: Oral bioavailability in ICR mouse at 10 mg/kg. The note with it: in vivo. It counts as ADME, organism-based.
The nature of series [16]: Cmax in ICR mouse at 10 mg/kg. Type of series: ADME, organism-based. Set-up: dose 10 mg/kg. The note with it: in vivo.
Series [17] is described as follows: Tmax in ICR mouse at 10 mg/kg. It counts as ADME, organism-based. Set-up: dose 10 mg/kg. The note with it: in vivo.

Regarding `CCC(CC)O[C@@H]1C=C(P(=O)(O)OCCCc2ccccc2)C[C@H](NC(=N)N)[C@H]1NC(C)=O`, in [1], the logD – broadly, lipophilicity at a set pH, counting ionised and neutral species – at 24 h is 0.66. In addition, the IC50 (in general, the concentration that inhibits the measured activity by half) against Neuraminidase was found to be 3.2 nM. The Activity entry with HEK-293T and in the series with MDCK was “Non-toxic” in each case. Further, in series [2], the Drug uptake is on record as less than 2000 ng. Further, the result in series [3], in [4] and in [5] was Active.

Consider `CC(=O)N[C@H]1[C@H]([C@H](O)[C@H](O)CO)OC(C(=O)O)=C[C@@H]1NC(=N)N`, for which, in series [4], the result was inactive.

`CCCCOP(=O)(O)C1=C[C@@H](OC(CC)CC)[C@H](NC(C)=O)[C@@H](NC(=N)N)C1`: in [1], the logD at 24 h was -0.16. At Neuraminidase, half-maximal inhibition (IC50) required 6.7 nM. In addition, the Activity result in the series on HEK-293T and in the series with MDCK was “Non-toxic” throughout.

For `CCOC(=O)C1=C[C@@H](OC(CC)CC)[C@H](NC(C)=O)[C@@H](N)C1`, in series [5], the result was Active.

Consider `CCCCOP(=O)(O)C1=C[C@@H](OC(CC)CC)[C@H](NC(C)=O)[C@@H](N)C1`, for which the logD at 24 h in [1] was -0.29. Further, it took 6.9 nM to reach half-maximal inhibition at Neuraminidase (IC50). In addition, the Activity result in the series on HEK-293T and in the series on MDCK was “Non-toxic” throughout.

With `CCC(CC)O[C@@H]1C=C(P(=O)(O)OCCCc2c[nH]c3ccccc23)C[C@H](N)[C@H]1NC(C)=O`, inhibition at Neuraminidase was half-maximal at 1.7 nM (IC50). Also, the Activity entry in the series with HEK-293T and with MDCK was “Non-toxic” throughout.

For the compound `CCOP(=O)(O)C1=C[C@@H](OC(CC)CC)[C@H](NC(C)=O)[C@@H](N)C1` [TAMIPHOSPHOR MONOETHYL ESTER], the Activity entry in the series on HEK-293T and with MDCK was “Non-toxic” in each case.

As for `CCCCCCOP(=O)(O)C1=C[C@@H](OC(CC)CC)[C@H](NC(C)=O)[C@@H](N)C1`, the logD at 24 h in series [1] is 0.3. Further, it took 2.2 nM to reach half-maximal inhibition against Neuraminidase (IC50). Also, the Activity result with HEK-293T and with MDCK was “Non-toxic” each time.

With `CCC(CC)O[C@@H]1C=C(P(=O)(O)OCCCc2ccccc2)C[C@H](N)[C@H]1NC(C)=O`, the logD at 24 h in series [1] was 0.28. At Neuraminidase, the IC50 came to 1.8 nM. The Activity result with HEK-293T and in the series with MDCK was “Non-toxic” throughout.

As to `CCCCCCOP(=O)(O)C1=C[C@@H](OC(CC)CC)[C@H](NC(C)=O)[C@@H](NC(=N)N)C1`, the logD at 24 h in series [1] came to 0.63. Further, the IC50 on Neuraminidase came to 4.1 nM. For the same compound, the Activity entry in the series with HEK-293T and with MDCK was “Non-toxic” throughout. Also, in series [2], the Drug uptake was found to be 13500 ng. Further, the permeability result with Caco-2 is listed as “permeable”. For the same compound, the k el in series [6] is 0.000533 s⁻¹; in series [10], 0.000167 s⁻¹. In series [7], the AUC(0-t) (commonly the area under the concentration-time curve up to a stated or last time point) at 2 h was found to be 169 ng·h/mL. In addition, the figures for the AUC(0-inf) in series [8] and in series [12] were 173 ng·h/mL and 867 ng·h/mL, respectively. Besides, the half-life is 0.36 h in series [9] and 1.07 h in series [13]. For the same compound, the F in the series with Mus musculus was 100%. Also, the AUC(0-t) at 12 h in [11] was determined as 361 ng·h/mL. Besides, the CL/F in [14] was 184 mL/min/kg. In addition, the bioavailability (usually the share of a dose that reaches the circulation, judged against a reference dose that is usually intravenous) in series [15] was 12.6%. In series [16], the Cmax (usually the peak of the concentration-time curve) is 261 ng/mL. In series [17], the Tmax (as a rule, the time from dosing to the highest level) stood at 1 h. The outcome in series [3], in series [4] and in [5] was Active.

Consider `CCOP(=O)(O)C1=C[C@@H](OC(CC)CC)[C@H](NC(C)=O)[C@@H](NC(=N)N)C1` [TAMIPHOSPHOR MONOETHYL ESTER], for which the result in series [3], in [4] and in series [5] was Active.
